Measured values reported in patent US20220283158A1, “METHOD OF IDENTIFYING PEPTIDE ANTIGENS AND USES THEREOF” (HUMANIRAS MIRASOLE S.P.A., priority 2019, published 2022).

Each substance was assayed on C57BL6/J 8-week-old male mice (assay: Immunization of healthy mice with single peptides in adjuvant, echocardiography of heart functionality). Conditions: s.c. 100 μg peptide in CFA day 0, boost in IFA day 21; echocardiography at 2, 5 and 9 weeks; versus CTR- (only CFA).
Type: in vivo, mouse
Description: C57BL6/J 8-week-old male mice were screened at baseline for heart functionality, via echocardiography, and randomly divided into 5 experimental groups. Mice belonging to control group (CTR-, only CFA) were injected subcutaneously (immunized, but without antigen: negative control) with 100 μl Complete Freud's Adjuvant (CFA) at day 0 and boosted with 100 μl of Incomplete Freud's Adjuvant (IFA) on day 21. Mice belonging to group 3 (CTR+) were injected subcutaneously (immunized, known antigen: positive control) with 100 μg of each of the three peptides (SEQ ID NOs. 15-17) derived from beta-adrenergic receptor and listed in the Table of FIG. 4, emulsified in Complete Freud's Adjuvant (CFA) at day 0 and boosted with 100 μg of the three peptides emulsified in Incomplete Freud's Adjuvant (IFA) on day 21. Mice belonging to group 4_A (Peptide 4_A) were injected subcutaneously (immunized) with 100 μg of the peptide of SEQ ID NO. 1, derived from 14-3-3 protein, emulsified in Complete Freud's Adjuvant (CFA) at day 0 and boosted with 100 μg of each of the three peptides emulsified in Incomplete Freud's Adjuvant (IFA) on day 21. Mice belonging to group 4_B (Peptide 4_B) were injected subcutaneously (immunized) with 100 μg of the peptide of SEQ ID NO. 5, derived from Snrpd1 protein, emulsified in Complete Freud's Adjuvant (CFA) at day 0 and boosted with 100 μg of each of the three peptides emulsified in Incomplete Freud's Adjuvant (IFA) on day 21. Mice belonging to group 4_C (Peptide 4_C) were injected subcutaneously (immunized) with 100 μg of the peptide of SEQ ID NO. 14, derived from Atp5o protein, emulsified in Complete Freud's Adjuvant (CFA) at day 0 and boosted with 100 μg of each of the three peptides emulsified in Incomplete Freud's Adjuvant (IFA) on day 21. On day 0 and day 2, all the mice were intraperitoneally injected with 200 ng of Pertussis Toxin. Heart functionality of all mice was analyzed via echocardiography at 2, 5 and 9 weeks after the first subcutaneous injection. In FIG. 7, the results of echocardiography analysis of cardiac functionality parameters % FS and % EF of C57BL6/J mice immunized with the peptide of SEQ ID NO. 1 (14-3-3 protein), the peptide of SEQ ID NO. 5 (Snrpd1 protein), or the peptide of SEQ ID NO. 14 (Atp5o protein) are shown. […] Data are plotted as mean±SEM, (n=4-6). Two-way ANOVA and Tukey's multiple comparison test with matching subjects. * p<0.05, ** p<0.01, ***p<0.001.

| Substance | % EF | % FS |
| --- | --- | --- |
| Peptide 4_A: peptide of SEQ ID NO. 1, derived from 14-3-3 protein (LGLALNFSVFYYEIL; listed as Homo sapiens) | significantly reduced | significantly reduced |
| Peptide 4_B: peptide of SEQ ID NO. 5, derived from Snrpd1 protein (EPVQLETLSIRGNNIRYFILPDSLP; listed as Homo sapiens) | significantly reduced | significantly reduced |
| Peptide 4_C: peptide of SEQ ID NO. 14, derived from Atp5o protein (LTANLMNLLAENGRL; listed as Mus musculus) | significantly reduced | significantly reduced |
